pEC50: −log10 of the molar value. In brackets after ≈: the same amount, converted by molar mass.
What was measured:
[1] = biological target: von Hippel-Lindau disease tumor suppressor/Androgen receptor (Homo sapiens, UniProt P10275+P40337); assay: PROTAC activity at VHL/AR-V7 (unknown origin) expressed in human 22Rv1 cells assessed as induction of AR-V7 degradation; type: cell-based
CWR22R [2] = assay: Antiproliferative activity against human 22Rv1 cells expressing […]; type: functional, cell-based
[3] = system: von Hippel-Lindau disease tumor suppressor/Androgen receptor (Homo sapiens), P10275+P40337 [UNDEFINED MUTATION]; assay: PROTAC activity at VHL/AR-V7 (unknown origin) expressed in human 22Rv1 cells assessed as induction of AR-V7 degradation my measuring maximum efficacy relative to control; type: cell-based
Chain of von Hippel-Lindau disease tumor suppressor/Androgen receptor (Homo sapiens), P10275+P40337 [UNDEFINED MUTATION] (P10275 whole entry, looked up, change not shown): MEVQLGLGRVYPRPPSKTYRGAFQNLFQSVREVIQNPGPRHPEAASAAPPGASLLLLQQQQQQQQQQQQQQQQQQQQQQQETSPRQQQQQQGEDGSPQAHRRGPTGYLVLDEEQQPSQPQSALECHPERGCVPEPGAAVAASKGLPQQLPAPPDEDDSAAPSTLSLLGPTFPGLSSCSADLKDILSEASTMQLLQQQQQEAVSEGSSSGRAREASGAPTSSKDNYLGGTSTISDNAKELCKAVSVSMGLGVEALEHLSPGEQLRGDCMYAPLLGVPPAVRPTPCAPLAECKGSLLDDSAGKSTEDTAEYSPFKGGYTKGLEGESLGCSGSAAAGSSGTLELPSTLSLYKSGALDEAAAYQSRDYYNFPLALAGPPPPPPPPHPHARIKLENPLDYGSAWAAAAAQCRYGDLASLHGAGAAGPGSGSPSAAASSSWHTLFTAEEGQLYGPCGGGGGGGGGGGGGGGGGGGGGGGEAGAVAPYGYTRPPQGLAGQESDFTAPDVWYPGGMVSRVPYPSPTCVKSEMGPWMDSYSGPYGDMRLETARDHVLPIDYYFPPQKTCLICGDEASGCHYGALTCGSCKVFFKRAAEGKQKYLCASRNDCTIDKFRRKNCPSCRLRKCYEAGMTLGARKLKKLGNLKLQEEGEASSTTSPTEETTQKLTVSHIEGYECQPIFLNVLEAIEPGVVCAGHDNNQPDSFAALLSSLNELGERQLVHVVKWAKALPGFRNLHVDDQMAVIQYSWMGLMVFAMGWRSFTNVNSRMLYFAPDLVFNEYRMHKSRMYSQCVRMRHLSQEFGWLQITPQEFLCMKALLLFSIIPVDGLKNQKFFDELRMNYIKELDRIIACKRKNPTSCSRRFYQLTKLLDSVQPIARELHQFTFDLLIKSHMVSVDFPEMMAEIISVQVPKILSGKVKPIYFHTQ
Chain of von Hippel-Lindau disease tumor suppressor/Androgen receptor (Homo sapiens), P10275+P40337 [UNDEFINED MUTATION] (P40337 whole entry, looked up, change not shown): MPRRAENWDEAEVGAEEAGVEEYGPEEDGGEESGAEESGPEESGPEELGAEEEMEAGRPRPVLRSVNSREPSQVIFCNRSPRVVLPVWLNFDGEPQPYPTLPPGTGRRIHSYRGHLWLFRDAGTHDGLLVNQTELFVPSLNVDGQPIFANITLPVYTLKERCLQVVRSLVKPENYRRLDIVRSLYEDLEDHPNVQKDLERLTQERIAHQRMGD

[4] = Cmax in CD1 mouse at 1 mg/kg, iv administered as single dose; type: ADME, organism-based; set-up: dose 1 mg/kg, route iv; details: in vivo
[5] = Terminal half life in CD1 mouse at 1 mg/kg, iv administered as single dose; type: ADME, organism-based; details: in vivo, read-out: beta t1/2 (converted)
[6] = AUC (0 to infinity) in CD1 mouse at 1 mg/kg, iv administered as single dose; type: ADME, organism-based; set-up: time infinity, dose 1 mg/kg, route iv; details: in vivo
[7] = Tmax in CD1 mouse at 30 mg/kg, po administered as single dose; type: ADME, organism-based; details: in vivo
[8] = Cmax in CD1 mouse at 30 mg/kg, po administered as single dose; type: ADME, organism-based; set-up: dose 30 mg/kg, route po; details: in vivo
[9] = Terminal half life in CD1 mouse at 30 mg/kg, po administered as single dose; type: ADME, organism-based; details: in vivo, read-out: beta t1/2 (converted)
[10] = AUC (0 to infinity) in CD1 mouse at 30 mg/kg, po administered as single dose; type: ADME, organism-based; set-up: time infinity, dose 30 mg/kg, route po; details: in vivo
[11] = Oral bioavailability in CD1 mouse at 30 mg/kg administered as single dose; type: ADME, organism-based; details: in vivo
[12] = Tmax in CD1 mouse at 100 mg/kg, po administered as single dose; type: ADME, organism-based; details: in vivo
[13] = Cmax in CD1 mouse at 100 mg/kg, po administered as single dose; type: ADME, organism-based; set-up: dose 100 mg/kg, route po; details: in vivo
[14] = Terminal half life in CD1 mouse at 100 mg/kg, po administered as single dose; type: ADME, organism-based; details: in vivo, read-out: beta t1/2 (converted)
[15] = AUC (0 to infinity) in CD1 mouse at 100 mg/kg, po administered as single dose; type: ADME, organism-based; set-up: time infinity, dose 100 mg/kg, route po; details: in vivo
[16] = Oral bioavailability in CD1 mouse at 100 mg/kg administered as single dose; type: ADME, organism-based; details: in vivo
[17] = Aqueous solubility of the compound at pH.7.4; type: physicochemical
[18] = Metabolic stability in mouse liver microsomes assessed as parent compound remaining measured at 1 hr; type: ADME, Microsome; details: read-out: Stability
CWR22R [19] = assay: Antiproliferative activity against human 22Rv1 cells expressing […] assessed as maximum efficacy relative to control; type: functional
CWR22R [20] = assay: Antiproliferative activity against human 22Rv1 cells expressing […] assessed as inhibition of cell growth at 10 uM relative to control; type: functional

Chain of von Hippel-Lindau disease tumor suppressor/Androgen receptor (P10275 whole entry, looked up, stated change not applied): as the sequence (P10275 whole entry, looked up, change not shown) above
Chain of von Hippel-Lindau disease tumor suppressor/Androgen receptor (P40337 whole entry, looked up, stated change not applied): as the sequence (P40337 whole entry, looked up, change not shown) above

| Structure (SMILES) | DC50 [1] [µM] | pEC50 (CWR22R [2]) | other results |
| --- | --- | --- | --- |
| Cc1ncsc1-c1ccc([C@H](C)NC(=O)[C@@H]2C[C@@H](O)CN2C(=O)[C@@H](NC(=O)CCCCOc2ccc(-c3csc(N4CC5CCC(C4)O5)n3)cc2)C(C)(C)C)cc1 | > 10 | < 5.00 | – |
| Cc1ncsc1-c1ccc(CNC(=O)[C@@H]2C[C@@H](O)CN2C(=O)[C@@H](NC(=O)C2(F)CC2)C(C)(C)C)c(OCCOc2ccc(-c3csc(N4CCOCC4)n3)cc2)c1 | – | < 5.00 | – |
| Cc1ncsc1-c1ccc([C@H](C)NC(=O)[C@@H]2C[C@@H](O)CN2C(=O)[C@@H](NC(=O)CCCCCOc2ccc(-c3csc(N4CCOCC4)n3)cc2)C(C)(C)C)cc1 | 1 | – | Emax [3]: 60% |
| c1ccc(-c2csc(N3CCOCC3)n2)cc1 | > 10 | – | – |
| Cc1ncsc1-c1ccc([C@H](C)NC(=O)[C@@H]2C[C@@H](O)CN2C(=O)[C@@H](NC(=O)CCCCOc2ccc(-c3csc(N4CCC5(COC5)C4)n3)cc2)C(C)(C)C)cc1 | – | < 5.00 | – |
| COc1c(-c2csc(N3CCOCC3)n2)ccc(OCCCCC(=O)N[C@H](C(=O)N2C[C@H](O)C[C@H]2C(=O)N[C@@H](C)c2ccc(-c3scnc3C)cc2)C(C)(C)C)c1F | > 10 | < 5.00 | – |
| Cc1ncsc1-c1ccc([C@H](C)NC(=O)[C@@H]2C[C@@H](O)CN2C(=O)[C@@H](NC(=O)CCCCOc2ccc(-c3csc(N4CCOCC4)n3)cc2)C(C)(C)C)cc1 | 0.32 | 6.06 | Cmax [4]: 2900 ng/mL; half-life [5]: 54 min; AUC(0-inf) [6]: 1290 ng·h/mL; Tmax [7]: 45 min; Cmax [8]: 773 ng/mL; half-life [9]: 60 min; AUC(0-inf) [10]: 1980 ng·h/mL; bioavailability [11]: 5%; Tmax [12]: 79.8 min; Cmax [13]: 1810 ng/mL; half-life [14]: 42 min; AUC(0-inf) [15]: 5950 ng·h/mL; bioavailability [16]: 4.6%; solubility [17]: 3.5 µM (≈ 2.76 µg/mL); remaining at 1 h [18]: 6%; Emax [3]: 67%; Emax (CWR22R [19]): 94% |
| Cc1ncsc1-c1ccc([C@H](C)NC(=O)[C@@H]2C[C@@H](O)CN2C(=O)[C@@H](NC(=O)CCCCOc2ccc(-c3csc(N4CC5(CCOCC5)C4)n3)cc2)C(C)(C)C)cc1 | – | < 5.00 | – |
| Cc1ncsc1-c1ccc([C@H](C)NC(=O)[C@@H]2C[C@@H](O)CN2C(=O)[C@@H](NC(=O)CCCCOc2ccc(-c3csc(N4CCOCC4)n3)cc2F)C(C)(C)C)cc1 | – | < 5.00 | – |
| Cc1ncsc1-c1ccc([C@H](C)NC(=O)[C@@H]2C[C@@H](O)CN2C(=O)[C@@H](NC(=O)c2ccc(-c3csc(N4CCOCC4)n3)cc2)C(C)(C)C)cc1 | > 10 | – | – |
| Cc1ncsc1-c1ccc([C@H](C)NC(=O)[C@@H]2C[C@@H](O)CN2C(=O)[C@@H](NC(=O)CCOc2ccc(-c3csc(N4CCOCC4)n3)cc2)C(C)(C)C)cc1 | > 10 | – | – |
| Cc1ncsc1-c1ccc(CNC(=O)[C@@H]2C[C@@H](O)CN2C(=O)[C@@H](NC(=O)C2(F)CC2)C(C)(C)C)c(OCCCCOc2ccc(-c3csc(N4CCOCC4)n3)cc2)c1 | – | < 5.00 | – |
| CCC1COCCN1c1nc(-c2ccc(OCCCCC(=O)N[C@H](C(=O)N3C[C@H](O)C[C@H]3C(=O)N[C@@H](C)c3ccc(-c4scnc4C)cc3)C(C)(C)C)cc2)cs1 (stereo partly specified) | – | < 5.00 | – |
| Cc1ncsc1-c1ccc([C@H](C)NC(=O)[C@@H]2C[C@@H](O)CN2C(=O)[C@@H](NC(=O)COc2ccc(-c3csc(N4CCOCC4)n3)cc2)C(C)(C)C)cc1 | > 10 | – | – |
| Cc1cc(OCCCCC(=O)N[C@H](C(=O)N2C[C@H](O)C[C@H]2C(=O)N[C@@H](C)c2ccc(-c3scnc3C)cc2)C(C)(C)C)ccc1-c1csc(N2CCOCC2)n1 | – | < 5.00 | – |
| Cc1ncsc1-c1ccc(CNC(=O)[C@@H]2C[C@@H](O)CN2C(=O)[C@@H](NC(=O)C2(F)CC2)C(C)(C)C)c(OCCCOc2ccc(-c3csc(N4CCOCC4)n3)cc2)c1 | – | < 5.00 | – |
| Cc1ncsc1-c1ccc([C@H](C)NC(=O)[C@@H]2C[C@@H](O)CN2C(=O)[C@@H](NC(=O)CCCCOc2ccc(-c3csc(N4CCOC(C)(C)C4)n3)cc2)C(C)(C)C)cc1 | > 10 | – | inhibition at 10 µM (CWR22R [20]): 66% |
| Cc1ncsc1-c1ccc(CNC(=O)[C@@H]2C[C@@H](O)CN2C(=O)[C@@H](NC(=O)C2(F)CC2)C(C)(C)C)c(OCCCCCCCCOc2ccc(-c3csc(N4CCOCC4)n3)cc2)c1 | – | < 5.00 | – |
| Cc1ncsc1-c1ccc([C@H](C)NC(=O)[C@@H]2C[C@@H](O)CN2C(=O)[C@@H](NC(=O)CCCCOc2ccc(-c3csc(N4CCOCC4)n3)c(F)c2)C(C)(C)C)cc1 | – | < 5.00 | – |
| Cc1ncsc1-c1ccc([C@H](C)NC(=O)[C@@H]2C[C@@H](O)CN2C(=O)[C@@H](NC(=O)CCCCOc2ccc(-c3csc(N4CCOCC4C)n3)cc2)C(C)(C)C)cc1 (stereo partly specified) | > 10 | < 5.00 | – |
| Cc1ncsc1-c1ccc([C@H](C)NC(=O)[C@@H]2C[C@@H](O)CN2C(=O)[C@@H](NC(=O)CCCCOc2ccc(-c3csc(N4CC(C)OCC4C)n3)cc2)C(C)(C)C)cc1 (stereo partly specified) | – | < 5.00 | – |
| Cc1ncsc1-c1ccc([C@H](C)NC(=O)[C@@H]2C[C@@H](O)CN2C(=O)[C@@H](NC(=O)CCCCOc2ccc(-c3csc(N4CCOCC4)n3)cc2N)C(C)(C)C)cc1 | – | < 5.00 | – |
| Cc1ncsc1-c1ccc([C@H](C)NC(=O)[C@@H]2C[C@@H](O)CN2C(=O)[C@@H](NC(=O)CCCCOc2ccc(-c3csc(N4CC(C)OC(C)C4)n3)cc2)C(C)(C)C)cc1 (stereo partly specified) | – | < 5.00 | – |
| Cc1ncsc1-c1ccc(CNC(=O)[C@@H]2C[C@@H](O)CN2C(=O)[C@@H](NC(=O)C2(F)CC2)C(C)(C)C)c(OCCCCCCOc2ccc(-c3csc(N4CCOCC4)n3)cc2)c1 | – | < 5.00 | – |
| Cc1ncsc1-c1ccc([C@H](C)NC(=O)[C@@H]2C[C@@H](O)CN2C(=O)[C@@H](NC(=O)CCCCOc2ccc(-c3csc(N4CCOCC4)n3)cc2[N+](=O)[O-])C(C)(C)C)cc1 | – | < 5.00 | – |
| Cc1ncsc1-c1ccc([C@H](C)NC(=O)[C@@H]2C[C@@H](O)CN2C(=O)[C@@H](NC(=O)CCCCOc2ccc(-c3csc(N4CCOC(C)C4)n3)cc2)C(C)(C)C)cc1 (stereo partly specified) | – | < 5.00 | – |
| Cc1ncsc1-c1ccc([C@H](C)NC(=O)[C@@H]2C[C@@H](O)CN2C(=O)[C@@H](NC(=O)CCCOc2ccc(-c3csc(N4CCOCC4)n3)cc2)C(C)(C)C)cc1 | 0.35 | 5.87 | solubility [17]: < 2 µM; remaining at 1 h [18]: 5%; Emax [3]: 53%; Emax (CWR22R [19]): 90% |
| Cc1ncsc1-c1ccc([C@H](C)NC(=O)[C@@H]2C[C@@H](O)CN2C(=O)[C@@H](NC(=O)CCCCOc2ccc(-c3csc(N4CC5(COC5)C4)n3)cc2)C(C)(C)C)cc1 | – | < 5.00 | – |

Reference: ChEMBL document CHEMBL5131402, “Design, synthesis, and biological evaluation of phenyl thiazole-based AR-V7 degraders” (Bioorg Med Chem Lett, 2022)
